These results are taken from PubChem BioAssay (NCI).

Some test systems named below: SN12C renal; 786-0 renal; A498 renal; SK-OV-3 ovarian; NCI-H23 lung; CCRF-CEM leukemia; K-562 leukemia; UACC-257 melanoma; T-47D breast; TK-10 renal; SK-MEL-2 melanoma; HS 578T breast.
What all share (assay): growth of human tumour cells (NCI), 48 h

Structures are written as SMILES.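 Dose response: 5 concentrations. Exposure: 48 h. Format: 96-well plates. Endpoint: linear interpolation; highest concentration if not reached. TGI marks complete inhibition of growth.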 Some results are limits rather than exact numbers.

On to `Cc1nc(Nc2nc3ccccc3[nH]2)[nH]c(=O)c1CCO`, for which the TGI with SN12C renal was over 100 µM; in the test with 786-0 renal, over 100 µM; with A498 renal it was over 100 µM; in the test on SK-OV-3 ovarian, over 82.1 µM; in the test on NCI-H23 lung, over 100 µM; in the test with CCRF-CEM leukemia, over 100 µM. In addition, the TGI was over 100 µM in the test on K-562 leukemia; over 100 µM in the test on UACC-257 melanoma; over 100 µM in the test on T-47D breast; over 81.4 µM in the test on TK-10 renal; over 100 µM with SK-MEL-2 melanoma; over 100 µM with HS 578T breast.

With `COC(=O)C1=NN2c3ccccc3CN([C@@H](C)c3ccccc3)C(=O)[C@H]2[C@@H]1C`, the TGI with SN12C renal, in the test on 786-0 renal, in the test on A498 renal, with SK-OV-3 ovarian, with NCI-H23 lung and with CCRF-CEM leukemia was over 100 µM each time. Moreover, the TGI is over 100 µM with K-562 leukemia; over 100 µM in the test on UACC-257 melanoma; 88.3 µM with T-47D breast; over 100 µM in the test with TK-10 renal; over 100 µM with SK-MEL-2 melanoma; over 100 µM with HS 578T breast.

On to `Cc1cn2c(/C=C3/C(=O)Nc4ccccc43)c(C)nc2s1`, for which the TGI in the test on SN12C renal is 42.2 µM; in the test on 786-0 renal, over 100 µM; in the test with A498 renal it was over 100 µM; with SK-OV-3 ovarian, 25.7 µM; in the test on NCI-H23 lung, over 100 µM; in the test with CCRF-CEM leukemia, 8.91 µM. For the same compound, the TGI was 17.2 µM in the test with K-562 leukemia; over 100 µM in the test with UACC-257 melanoma; 38.5 µM in the test with T-47D breast; over 100 µM in the test with TK-10 renal; 5.57 µM in the test on SK-MEL-2 melanoma; 7 µM with HS 578T breast.

For `OC1(c2ccc3ccccc3c2)c2c(c3ccccc3c3ccccc23)C2=NCCN21` (centres undefined), the TGI was over 63.6 µM in the test with SN12C renal; 25.3 µM in the test on 786-0 renal; 44 µM in the test with A498 renal; 42.8 µM in the test on SK-OV-3 ovarian; 47.2 µM in the test on NCI-H23 lung; over 100 µM with CCRF-CEM leukemia. Also, the TGI in the test with K-562 leukemia is over 100 µM; in the test with UACC-257 melanoma, over 63.5 µM; with T-47D breast, over 40.6 µM; in the test on TK-10 renal it was 35.4 µM; in the test on SK-MEL-2 melanoma, over 46.3 µM; in the test on HS 578T breast, 24.2 µM.

With `O=C(O)CO/N=C1/C(c2c(O)[nH]c3ccccc23)=Nc2ccccc21`, the TGI is over 100 µM with SN12C renal; over 100 µM in the test with 786-0 renal; over 100 µM in the test with A498 renal; 68.1 µM in the test with SK-OV-3 ovarian; over 100 µM in the test on NCI-H23 lung; over 100 µM in the test with CCRF-CEM leukemia. For the same compound, the TGI with K-562 leukemia was over 100 µM; with UACC-257 melanoma, over 100 µM; in the test with T-47D breast, over 100 µM; in the test with TK-10 renal, over 100 µM; with SK-MEL-2 melanoma, 80.1 µM; in the test on HS 578T breast, over 100 µM.

For the compound `Cc1ccc(N2C(=O)C(=O)N(/N=C3\C(=O)Nc4ccccc43)C2=S)cc1`, the TGI in the test on SN12C renal, in the test on 786-0 renal, with A498 renal, in the test with SK-OV-3 ovarian, in the test with NCI-H23 lung and in the test on CCRF-CEM leukemia was over 100 µM throughout. Besides, the TGI in the test with K-562 leukemia, in the test with UACC-257 melanoma, in the test with T-47D breast, in the test with TK-10 renal, in the test with SK-MEL-2 melanoma and with HS 578T breast was over 100 µM in each case.

With `CCN1C(=O)CS/C1=N\NC(=O)CSc1nc2ccccc2c(=O)n1CC`, the TGI with SN12C renal, in the test on 786-0 renal, in the test with A498 renal, in the test with SK-OV-3 ovarian, in the test with NCI-H23 lung and with CCRF-CEM leukemia was over 100 µM each time. The TGI in the test on K-562 leukemia, in the test with UACC-257 melanoma, with T-47D breast, in the test with TK-10 renal, with SK-MEL-2 melanoma and in the test on HS 578T breast was over 100 µM throughout.

As to `O=C1c2c(ccc3c2CCCC3)CC1Cc1ccc2c(c1)CCCC2` (centres undefined), the TGI with SN12C renal is over 100 µM; in the test on 786-0 renal, over 100 µM; in the test with A498 renal it was over 100 µM; in the test on SK-OV-3 ovarian it was over 100 µM; with NCI-H23 lung, over 100 µM; in the test with CCRF-CEM leukemia, 59.7 µM. Further, the TGI in the test on K-562 leukemia is over 100 µM; in the test on UACC-257 melanoma it was 71 µM; with T-47D breast, 9.84 µM; in the test with TK-10 renal, over 100 µM; in the test with SK-MEL-2 melanoma, over 100 µM; with HS 578T breast, over 100 µM.

On to `CCCc1cc(-c2ccc(-c3cc(CCC)c(C=O)[nH]3)s2)[nH]c1C=O`, for which the TGI was over 100 µM with SN12C renal; over 100 µM with 786-0 renal; over 100 µM in the test with A498 renal; over 100 µM in the test with SK-OV-3 ovarian; over 86.1 µM in the test on NCI-H23 lung; over 100 µM with CCRF-CEM leukemia. The TGI in the test on K-562 leukemia was over 100 µM; with UACC-257 melanoma, over 100 µM; in the test with T-47D breast it was over 100 µM; in the test with TK-10 renal it was over 100 µM; in the test with SK-MEL-2 melanoma it was over 59.7 µM; with HS 578T breast, over 100 µM.

On to `O=C1Nc2ccc(Br)cc2/C1=C/C(=O)c1ccccc1`, for which the TGI with SN12C renal turned out to be 10.5 µM; with 786-0 renal, 3.28 µM; with A498 renal, 34.6 µM; in the test on SK-OV-3 ovarian it was 31.9 µM; in the test with NCI-H23 lung it was 23.8 µM; in the test on CCRF-CEM leukemia it was 8.36 µM. Besides, the TGI in the test with K-562 leukemia is over 100 µM; with UACC-257 melanoma it was 29 µM; in the test on T-47D breast, 32.1 µM; in the test with TK-10 renal it was 3.7 µM; in the test on SK-MEL-2 melanoma, 32.3 µM; with HS 578T breast it was over 55.4 µM.

Regarding `CCc1n[nH]c(=S)n1/N=C\c1ccc(-c2ccccc2[N+](=O)[O-])o1`, the TGI in the test with SN12C renal, in the test on 786-0 renal, with A498 renal, with SK-OV-3 ovarian, with NCI-H23 lung and in the test with CCRF-CEM leukemia was over 100 µM throughout. Besides, the TGI in the test with K-562 leukemia, with UACC-257 melanoma, with T-47D breast, in the test on TK-10 renal, with SK-MEL-2 melanoma and in the test on HS 578T breast was over 100 µM throughout.

With `CNc1ncnc2c1cnn2Cc1cn(CCCCO)nn1`, the TGI in the test with SN12C renal, in the test with 786-0 renal, in the test with A498 renal, in the test with SK-OV-3 ovarian, in the test on NCI-H23 lung and with CCRF-CEM leukemia was over 100 µM throughout. Also, the TGI in the test with K-562 leukemia, in the test on UACC-257 melanoma, in the test with T-47D breast, in the test on TK-10 renal, in the test with SK-MEL-2 melanoma and with HS 578T breast was over 100 µM throughout.
